Results taken from the NIST ThermoML archive (doi:10.1021/acs.jced.7b00483).

Assay: molar heat capacity at constant pressure; mn = molality of the nth substance listed, in mol/kg
Details: 100 kPa, Liquid, Flow calorimetry

[Cl][Cu][Cl] [copper chloride] + O
molar heat capacity at constant pressure [J/K/mol]
Details | 298.15 K | 303.15 K | 313.15 K | 323.15 K | 333.15 K | 343.15 K | 353.15 K | 363.15 K
m1 = 0.2971 | 74.06 | 74.34 | 74.86 | 75.29 | 75.6 | 75.85 | 75.98 | 76.05
m1 = 0.5433 | 73.82 | 74.14 | 74.68 | 75.1 | 75.41 | 75.6 | 75.69 | 75.68
m1 = 0.7083 | 73.51 | 73.84 | 74.42 | 74.85 | 75.16 | 75.34 | 75.34 | 75.3
m1 = 1.018 | 73.01 | 73.37 | 74 | 74.48 | 74.86 | 75.1 | 75.24 | 75.22
m1 = 1.448 | 72.53 | 72.93 | 73.62 | 74.19 | 74.61 | 74.9 | 75.05 | 75.05
m1 = 1.899 | 72.05 | 72.47 | 73.19 | 73.8 | 74.24 | 74.59 | 74.74 | 74.78
m1 = 2.012 | 72.27 | 72.71 | 73.51 | 74.13 | 74.61 | 74.94 | 75.12 | 75.12
m1 = 2.424 | 72.23 | 72.74 | 73.63 | 74.38 | 74.96 | 75.37 | 75.64 | 75.73
m1 = 2.954 | 72.36 | 72.91 | 73.85 | 74.59 | 75.16 | 75.52 | 75.71 | 75.71
m1 = 3.454 | 72.47 | 73.05 | 74.06 | 74.93 | 75.63 | 76.15 | 76.52 | 76.67
m1 = 4.036 | 72.69 | 73.32 | 74.4 | 75.31 | 76.01 | 76.5 | 76.79 | 76.89
m1 = 4.452 | 72.71 | 73.37 | 74.54 | 75.48 | 76.17 | 76.62 | 76.81 | 76.78

[Cl][Ni][Cl] [nickel chloride (NiCl2)] + O
molar heat capacity at constant pressure [J/K/mol]
Details | 298.15 K | 303.15 K | 313.15 K | 323.15 K | 333.15 K | 343.15 K | 353.15 K | 363.15 K
m1 = 0.1432 | 74.53 | 74.56 | 74.64 | 74.73 | 74.84 | 74.97 | 75.09 | 75.24
m1 = 0.3571 | 73.64 | 73.75 | 73.98 | 74.17 | 74.3 | 74.41 | 74.48 | 74.5
m1 = 0.7035 | 72.08 | 72.41 | 72.91 | 73.42 | 73.73 | 73.92 | 73.96 | 73.88
m1 = 0.9968 | 70.92 | 71.28 | 71.88 | 72.38 | 72.74 | 72.98 | 73.12 | 73.12
m1 = 1.24 | 70.61 | 70.99 | 71.67 | 72.22 | 72.63 | 72.92 | 73.06 | 73.08
m1 = 1.53 | 70.09 | 70.49 | 71.18 | 71.73 | 72.15 | 72.44 | 72.59 | 72.59
m1 = 1.874 | 69.74 | 70.16 | 70.89 | 71.5 | 71.93 | 72.23 | 72.41 | 72.45
m1 = 2.241 | 69.49 | 69.96 | 70.74 | 71.39 | 71.88 | 72.2 | 72.37 | 72.4
m1 = 2.608 | 69.48 | 69.99 | 70.89 | 71.63 | 72.2 | 72.64 | 72.89 | 72.98
m1 = 3.614 | 69.27 | 69.86 | 70.88 | 71.73 | 72.42 | 72.94 | 73.29 | 73.49
m1 = 4.102 | 69.42 | 70.04 | 71.12 | 72.02 | 72.69 | 73.18 | 73.48 | 73.56
